Measured values published in patent publication US9650379B2 (CHONG KUN DANG PHARMACEUTICAL CORP., priority 2013, dated 2017).

Columns and labels:
HDAC1 = target: T1, HDAC1 (Homo sapiens, UniProt Q13547); experiment: Inhibition of HDAC1 activity (HDAC1 fluorimetric drug discovery assay kit); assay type: biochemical; conditions: test concentrations 100, 1000 and 10000 nM; 37° C., 60 minutes
T1 construct: purchased Enzolifesciences BML-AK511
In short: (§1)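 HDAC1 tested with the kit assay mixture at 100, 1000 and 10000 nM compound; recombinant human HDAC6 at 0.1, 1, 10, 100 and 1000 nM. Reaction ran 60 min at 37° C, then developer was added for 30 min at 37° C and fluorescence quantified.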

HDAC6 human recombinant = target: T2, HDAC6 human recombinant (Homo sapiens, UniProt Q9UBN7); experiment: Inhibition of HDAC6 activity (fluorimetric assay); assay type: biochemical; conditions: test concentrations 0.1, 1, 10, 100 and 1000 nM; 37° C., 60 minutes
T2 construct: purchased Calbiochem 382180
T2 sequence (Q9UBN7 1-1215): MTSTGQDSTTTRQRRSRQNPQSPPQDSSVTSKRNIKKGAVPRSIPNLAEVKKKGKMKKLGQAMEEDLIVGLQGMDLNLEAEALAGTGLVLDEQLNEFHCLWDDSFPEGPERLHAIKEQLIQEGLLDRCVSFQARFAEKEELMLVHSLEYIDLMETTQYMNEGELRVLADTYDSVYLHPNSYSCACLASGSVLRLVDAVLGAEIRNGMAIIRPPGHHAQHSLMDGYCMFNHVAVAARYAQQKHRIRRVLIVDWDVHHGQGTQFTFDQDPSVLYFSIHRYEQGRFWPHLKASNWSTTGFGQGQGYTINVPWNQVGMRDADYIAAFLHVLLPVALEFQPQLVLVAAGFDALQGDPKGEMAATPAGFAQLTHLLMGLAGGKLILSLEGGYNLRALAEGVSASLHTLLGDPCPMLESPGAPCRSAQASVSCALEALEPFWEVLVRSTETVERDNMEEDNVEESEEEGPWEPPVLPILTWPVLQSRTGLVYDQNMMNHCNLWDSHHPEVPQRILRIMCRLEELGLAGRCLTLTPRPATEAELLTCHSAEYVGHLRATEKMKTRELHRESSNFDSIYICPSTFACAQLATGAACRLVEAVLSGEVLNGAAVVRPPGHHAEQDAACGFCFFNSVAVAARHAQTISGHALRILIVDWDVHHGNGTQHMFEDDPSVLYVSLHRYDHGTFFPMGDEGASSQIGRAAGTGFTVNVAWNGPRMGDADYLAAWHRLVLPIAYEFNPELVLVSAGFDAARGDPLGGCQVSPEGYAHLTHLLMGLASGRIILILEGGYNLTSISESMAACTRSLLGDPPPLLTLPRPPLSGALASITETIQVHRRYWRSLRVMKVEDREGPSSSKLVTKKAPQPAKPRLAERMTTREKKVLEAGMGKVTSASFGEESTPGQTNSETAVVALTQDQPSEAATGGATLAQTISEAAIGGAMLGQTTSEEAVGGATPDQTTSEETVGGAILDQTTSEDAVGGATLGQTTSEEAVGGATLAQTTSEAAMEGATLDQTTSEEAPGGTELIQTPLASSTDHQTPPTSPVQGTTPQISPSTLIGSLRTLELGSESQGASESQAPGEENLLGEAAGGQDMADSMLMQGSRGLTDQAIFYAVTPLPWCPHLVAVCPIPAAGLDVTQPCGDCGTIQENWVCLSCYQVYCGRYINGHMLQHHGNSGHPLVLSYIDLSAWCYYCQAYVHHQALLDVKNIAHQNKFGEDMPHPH
In short: as §1

T1 sequence (Q13547 whole entry): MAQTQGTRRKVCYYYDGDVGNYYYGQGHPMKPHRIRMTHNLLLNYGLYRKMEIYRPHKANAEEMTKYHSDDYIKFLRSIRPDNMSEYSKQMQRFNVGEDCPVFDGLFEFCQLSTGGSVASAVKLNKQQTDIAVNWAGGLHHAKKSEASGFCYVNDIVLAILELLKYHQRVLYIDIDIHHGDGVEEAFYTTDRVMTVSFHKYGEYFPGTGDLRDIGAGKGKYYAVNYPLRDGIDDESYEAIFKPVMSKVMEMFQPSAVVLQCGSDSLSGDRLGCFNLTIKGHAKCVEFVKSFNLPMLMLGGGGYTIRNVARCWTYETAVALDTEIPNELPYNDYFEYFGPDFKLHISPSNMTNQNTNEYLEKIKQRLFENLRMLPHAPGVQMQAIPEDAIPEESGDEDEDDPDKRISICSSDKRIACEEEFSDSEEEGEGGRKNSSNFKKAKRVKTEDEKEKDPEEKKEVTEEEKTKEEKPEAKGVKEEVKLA

| SMILES | IC50 (HDAC1) [nM] | IC50 (HDAC6 human recombinant) [nM] |
| --- | --- | --- |
| CC(C)(O)CN1C2CCC1CC(c1ccnc3c1ccn3Cc1ccc(C(=O)NO)cc1)C2 (stereo not drawn) [Compound 930, N-hydroxy-4-((4-(8-(2-hydroxy-2-methylpropyl)-8-aza-bicyclo[3.2.1]octan-3-yl)-1H-pyrrolo[2,3-b]pyridin-1-yl)methyl)benzamide] | 250 | 1.7 |
| CC(O)(CO)CN1CCC(c2ccnc3c2ccn3Cc2ccc(C(=O)NO)cc2)CC1 (stereo not drawn) [Compound 945, 4-((4-(1-(2,3-dihydroxy-2-methylpropyl)piperidin-4-yl)-1H-pyrrolo[2,3-b]pyridin-1-yl)methyl)-N-hydroxybenzamide] | 200 | 3.7 |
| CC(O)(CO)CN1CCC(c2cnc3c(ccn3Cc3ccc(C(=O)NO)cc3)c2)CC1 (stereo not drawn) [Compound 946, 4-((5-(1-(2,3-dihydroxy-2-methylpropyl)piperidin-4-yl)-1H-pyrrolo[2,3-b]pyridin-1-yl)methyl)-N-hydroxybenzamide] | 490 | 2 |
| CC(C)(O)CN1CC2(CCN(c3cnc4c(ccn4Cc4ccc(C(=O)NO)cc4)c3)CC2)C1 [Compound 956, N-hydroxy-4-((5-(2-(2-hydroxy-2-methylpropyl)-2,7-diazaspiro[3.5]nanan-7-yl)-1H-pyrrolo[2,3-b]pyridin-1-yl)methyl)benzamide] | 830 | 3.7 |
| O=C(NO)c1ccc(Cn2ccc3cc(N4CCC5(CC4)CN(Cc4cccnc4)C5)cnc32)cc1 [Compound 957, N-hydroxy-4-((5-(2-(pyridin-3-ylmethyl)-2,7-diazaspiro[3.5]nonan-7-yl)-1H-pyrrolo[2,3-b]pyridin-1-yl)methyl)benzamide] | 650 | 1.6 |
| COc1ccc(CN2CCC(c3ccnc4c3ccn4Cc3ccc(C(=O)NO)cc3)CC2)cc1 [Compound 959, N-hydroxy-4-((4-(1-(4-methoxybenzyl)piperidin-4-yl)-1H-pyrrolo[2,3-b]pyridin-1-yl)methyl)benzamide] | 900 | 12 |
| O=C(NO)c1ccc(Cn2ccc3c(C4CCN(Cc5ncccn5)CC4)ccnc32)cc1 [Compound 966, N-hydroxy-4-((4-(1-(pyrimidin-2-ylmethyl)piperidin-4-yl)-1H-pyrrolo[2,3-b]pyridin-1-yl)methyl)benzamide] | 280 | 3.8 |
| CN1CCN(c2ccccc2CN2CCC(c3ccnc4c3ccn4Cc3ccc(C(=O)NO)cc3)CC2)CC1 [Compound 984, N-hydroxy-4-((4-(1-(2-(4-methylpiperazin-1-yl)benzyl)piperidin-4-yl)-1H-pyrrolo[2,3-b]pyridin-1-yl)methyl)benzamide] | 530 | 7.6 |
| O=C(NO)c1ccc(Cn2ccc3c(C4CCN(Cc5cccc(CN6CCOCC6)c5)CC4)ccnc32)cc1 [Compound 985, N-hydroxy-4-((4-(1-(3-(morpholinomethyl)benzyl)piperidin-4-yl)-1H-pyrrolo[2,3-b]pyridin-1-yl)methyl)benzamide] | 510 | 2.3 |
| CN1CCN(Cc2cccc(CN3CCC(c4ccnc5c4ccn5Cc4ccc(C(=O)NO)cc4)CC3)c2)CC1 [Compound 986, N-hydroxy-4-((4-(1-(3-((4-methylpiperazin-1-yl)methyl)benzyl)piperidin-4-yl)-1H-pyrrolo[2,3-b]pyridin-1-yl)methyl)benzamide] | 420 | 11.5 |
| O=C(NO)c1ccc(Cn2ccc3c(C4CCN(Cc5ccc(CN6CCOCC6)cc5)CC4)ccnc32)cc1 [Compound 987, N-hydroxy-4-((4-(1-(4-(morpholinomethyl)benzyl)piperidin-4-yl)-1H-pyrrolo[2,3-b]pyridin-1-yl)methyl)benzamide] | 320 | 5.7 |
| CN1CCN(Cc2ccc(CN3CCC(c4ccnc5c4ccn5Cc4ccc(C(=O)NO)cc4)CC3)cc2)CC1 [Compound 988, N-hydroxy-4-((4-(1-(4-((4-methylpiperazin-1-yl)methyl)benzyl)piperidin-4-yl)-1H-pyrrolo[2,3-b]pyridin-1-yl)methyl)benzamide] | 290 | 5.9 |
| C[C@@H]1CN(c2ccnc3c2ccn3Cc2ccc(C(=O)NO)cc2)C[C@H](C)N1Cc1ccccc1 [Compound 990, 4-((4-((3S,5R)-4-benzyl-3,5-dimethylpiperazin-1-yl)-1H-pyrrolo[2,3-b]pyridin-1-yl)methyl)-N-hydroxybenzamide] | 1360 | 4.6 |
| CC(C)(O)CN1CCC(c2ccc3ccn(Cc4ccc(C(=O)NO)cc4)c3n2)CC1 [Compound 991, N-hydroxy-4-((6-(1-(2-hydroxy-2-methylpropyl)piperidin-4-yl)-1H-pyrrolo[2,3-b]pyridin-1-yl)methyl)benzamide] | 880 | 32 |
| O=C(NO)c1ccc(Cn2ccc3ccc(C4CCN(Cc5cccnc5)CC4)nc32)cc1 [Compound 992, N-hydroxy-4-((6-(1-(pyridin-3-ylmethyl)piperidin-4-yl)-1H-pyrrolo[2,3-b]pyridin-1-yl)methyl)benzamide] | 860 | 34 |
| COc1cccc(CN2[C@H](C)CN(c3cnc4c(ccn4Cc4ccc(C(=O)NO)cc4)c3)C[C@@H]2C)c1 [Compound 1003] | 2680 | 7.7 |
| C[C@@H]1CN(c2cnc3c(ccn3Cc3ccc(C(=O)NO)cc3)c2)C[C@H](C)N1Cc1cccnc1 [Compound 1004, 4-((5-((3S,5R)-3,5-dimethyl-4-(pyridin-3-ylmethyl)piperazin-1-yl)-1H-pyrrolo[2,3-b]pyridin-1-yl)methyl)-N-hydroxybenzamide] | 610 | 3.2 |
| C[C@@H]1CN(c2cnc3c(ccn3Cc3ccc(C(=O)NO)cc3)c2)C[C@H](C)N1Cc1ncccn1 [Compound 1005, 4-((5-((3S,5R)-3,5-dimethyl-4-(pyrimidin-2-ylmethyl)-1-yl)-1H-pyrrolo[2,3-b]pyridin-1-yl)methyl)-N-hydroxybenzamide] | 750 | 5.5 |
| O=C(NO)c1ccc(Cn2ccc3c(C4CCN(Cc5cccnc5)CC4)ccnc32)cc1 [Compound 1014, N-hydroxy-4-((4-(1-(pyridin-3-ylmethyl)piperidin-4-yl)-1H-pyrrolo[2,3-b]pyridin-1-yl)methyl)benzamide] | 670 | 8.5 |
| CC(CC(=O)O)N1CCC(c2ccnc3c2ccn3Cc2ccc(C(=O)NO)cc2)CC1 (stereo not drawn) [Compound 1015, 3-(4-(1-(4-(hydroxycarbamoyl)benzyl)-1H-pyrrolo[2,3-b]pyridin-4-yl)piperidin-1-yl)butanoic acid] | 670 | 8.5 |
| CC(C)(O)CN1C2CCC1CN(c1ccnc3c1ccn3Cc1ccc(C(=O)NO)cc1)C2 [Compound 1017, N-hydroxy-4-((4-(8-(2-hydroxy-2-methylpropyl)-3,8-diazabicyclo[3.2.1]octan-3-yl)-1H-pyrrolo[2,3-b]pyridin-1-yl)methyl)benzamide] | 220 | 6 |
| O=C(NO)c1ccc(Cn2ccc3c(N4CC5CCC(C4)N5Cc4cccnc4)ccnc32)cc1 [Compound 1019, N-hydroxy-4-((4-(8-(pyridin-3-ylmethyl)-3,8-diazabicyclo[3.2.1]octan-3-yl)-1H-pyrrolo[2,3-b]pyridin-1-yl)methyl)benzamide] | 260 | 6.8 |
| COc1ccc(CN2CCC3(CCN(c4ccnc5c4ccn5Cc4ccc(C(=O)NO)cc4)CC3)C2)cc1 [Compound 1021, N-hydroxy-4-((4-(2-(4-methoxybenzyl)-2,8-diazaspiro[4.5]decan-8-yl)-1H-pyrrolo[2,3-b]pyridin-1-yl)methyl)benzamide] | 240 | 14 |
| O=C(NO)c1ccc(Cn2ccc3c(N4CCC5(CCN(Cc6cccnc6)C5)CC4)ccnc32)cc1 [Compound 1022, N-hydroxy-4-((4-(2-(pyridin-3-ylmethyl)-2,8-diazaspiro[4.5]decan-8-yl)-1H-pyrrolo[2,3-b]pyridin-1-yl)methyl)benzamide] | 70 | 5.8 |
